Measured values reported in publication PMC8341744 (RSC Chemical Biology, 2020).
Like-named read-outs stand apart in the source and are kept apart here.

Legend:
[1] = biological target: T1, Mcl-1 (Mus musculus, UniProt P97287, F227L/F267C/G222D/K236S/Q303E/S261T/T274S/V232I/V262I); experiment: FITC-NoxaB Mcl-1 competitive binding fluorescence anisotropy
[2] = biological target: T1, Mcl-1; details: Mcl-1/Noxa; parent peptide; cited from earlier work

T1 sequence (P97287 152-308 G222D/F227L/V232I/K236S/S261T/V262I/F267C/T274S/Q303E): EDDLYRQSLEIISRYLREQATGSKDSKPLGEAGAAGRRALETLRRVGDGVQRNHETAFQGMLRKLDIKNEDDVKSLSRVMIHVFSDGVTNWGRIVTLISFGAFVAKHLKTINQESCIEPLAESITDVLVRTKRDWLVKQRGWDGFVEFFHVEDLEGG

IC50 [1] | Molecule | IC50 [2]
4.39 µM | CC(=O)O[C@@H]1[C@@H](OC(C)=O)[C@H](OC(C)=O)CO[C@H]1n1cc(-c2ccc(Cl)cc2)nn1 [compound 7, (2R,3R,4S,5R)-2-(4-(4-chlorophenyl)-1H-1,2,3-triazol-1-yl)tetrahydro-2H-pyran-3,4,5-triyl triacetate] | 
7.03 µM | CC(=O)O[C@@H]1[C@@H](OC(C)=O)[C@H](OC(C)=O)CO[C@H]1n1cc(-c2ccc(Br)cc2)nn1 [compound 8, (2R,3R,4S,5R)-2-(4-(4-bromophenyl)-1H-1,2,3-triazol-1-yl)tetrahydro-2H-pyran-3,4,5-triyl triacetate] | 
 | AAQLRRIGDKVNLRQKLLN [NoxaB-(75–93)-C75A peptide] | 650 nM
